From US20260325500A1, “METHODS AND COMPOSITIONS FOR TREATING ACUTE STRESS DISORDER” (BioXcel Therapeutics, Inc., priority 2022, published 2026)
Structures can show the parent of a compound that is named as a salt.

System: Yohimbine-induced noradrenergic hyperarousal in Wistar rats
Test: Elevated plus maze, yohimbine-induced noradrenergic hyperarousal, dose response (Example 3)
Assay type: in vivo
Details: for Percent increase as referred to the Vehicle level, Entries / Percent increase as referred to the Vehicle level, Time: 60 min
Excerpt: Background: Yohimbine is an alpha 2-adrenergic receptor antagonist reported to trigger panic attacks in healthy volunteers and to exacerbate symptoms in patients with panic disorder (Charney et al., 1992 Acta Psychiatr Scand., Vol. 86 (4): 273-282). Peripheral administration of Yohimbine causes noradrenergic mediated hyperarousal in rats as assessed by the EPM paradigm.
Rationale: The drug yohimbine is a natural product used to test a specific pathway, noradrenergic-mediated hyper-arousal. It is well established that yohimbine is an alpha2-adrenergic receptor antagonist and activates the locus coeruleus (LC) and increases noradrenergic signaling (the opposite of alpha2-adrenergic agonists like dexmedetomidine and clonidine). Increased LC activity and noradrenergic signaling makes animals anxious and agitated which can be measured by using the elevated plus maze. In the elevated plus maze, rodents were in the closed arms and explored the open arms depending on their anxiety and agitation (rats and mice normally explore their environments extensively when calm). […] This behavior is correlated to increased level of anxiety caused by noradrenergic mediated hyperarousal.
Animal groups: Rats were distributed in 9 different experimental groups with 12 […] per group as illustrated in Table 6. Each experimental group was also coded so that the experimenter became unaware of the true experimental group at the time EPM trial.
Acclimatization: Male Wistar rats (Janvier; Le Genest St Isle-France) were used for the study. They were purchased at a body weight of 150 g and reached a body weight of about 220 g at the time of use. They were group-housed (3-4 rats per cage) and maintained in a room with controlled temperature (21-22° C.) and a reversed light-dark cycle (12 h/12 h; lights on: 17:30-05:30; lights off: 05:30-17:30).
Drug preparation: All compounds/drugs were prepared in normal saline (0.9% NaCl).
Yohimbine was prepared at a solution of 2.5 mg/mL which when injected i.p. at a dosage volume of 1 mL/kg results in a dose of 2.5 mg/kg. Diazepam was prepared at a solution of 1 mg/mL which when injected i.p. at a dosage volume of 1 mL/kg results in a dose of 1 mg/kg. Latrepirdine dihydrochloride hydrate was prepared at a solution of 7.5, 2.5, 0.75 and 0.25 mg/mL which when injected i.m. at a volume of 100 μL for a rat of 250 g results in doses of 3; 1; 0.3 and 0.1 mg/kg; respectively. Latrepirdine dihydrochloride hydrate was also prepared at […] which when administrated i.p. at a dosage volume of 1 mL/kg results in a dose of 3 mg/kg.
Experimental procedure: The rats were randomly assigned to one of the different experimental groups. Each animal was identified by its group name, cage number, series (day) of experiment, and a number (from 1 to 9) written with permanent ink on its tail. They were handled by an experimenter for about 3 min each day during 1 week prior to the day of EPM trial. The apparatus was a PVC maze covered with Plexiglas and subdivided into four equal exploratory arms (40×10 cm), which were all interconnected by a small platform (10×10 cm). The apparatus was placed 65 cm above the floor. Two arms were opened, and two others were closed with wall (high: 10 cm). After compound administration, rat was placed on the platform opposite a closed arm. The number of entries and the time spent in each arm were recorded during a 5 min period. The animal was considered as entered in an arm when it placed its four paws in the arm. The apparatus was cleaned between each animal using alcohol (70%). Urine and feces were removed from the maze. During the trials, animal handling and the visibility of the operator were minimized as much as possible.
Statistical analysis: Analysis of variance (ANOVA) was performed on the result data. Fisher's PLSD was used for pairwise comparisons and p value≤0.05 were considered significant. […]

[1] = 0.1 mg/kg, i.m., yohimbine hydrochloride 2.5 mg/kg i.p.
[2] = 0.3 mg/kg, i.m., yohimbine hydrochloride 2.5 mg/kg i.p.
[3] = 1 mg/kg, i.m., yohimbine hydrochloride 2.5 mg/kg i.p.
[4] = 3 mg/kg, i.m., saline (yohimbine-free rats)
[5] = 3 mg/kg, i.m., yohimbine hydrochloride 2.5 mg/kg i.p.
[6] = 3 mg/kg, i.p., yohimbine hydrochloride 2.5 mg/kg i.p.

Compound: Cc1ccc2c(c1)c1c(n2CCc2ccc(C)nc2)CCN(C)C1 [latrepirdine dihydrochloride hydrate]
- Percent increase as referred to the Vehicle level, Entries [1]: 21%
- Percent increase as referred to the Vehicle level, Time [1]: 21%
- Percent increase as referred to the Vehicle level, Entries [2]: 11%
- Percent increase as referred to the Vehicle level, Time [2]: 73%
- Percent increase as referred to the Vehicle level, Entries [3]: 106%
- Percent increase as referred to the Vehicle level, Time [3]: 274%
- EPM performance of saline-treated rats (yohimbine-free) (3 mg/kg i.m.): did not significantly modify the EPM performance
- EPM performance, i.m. compared with i.p. route (3 mg/kg, yohimbine rats): comparable to that of specimens treated intraperitoneally
- Percent increase as referred to the Vehicle level, Entries [4]: 167%
- Percent increase as referred to the Vehicle level, Time [4]: 377%
- Percent increase as referred to the Vehicle level, Entries [5]: 172%
- Percent increase as referred to the Vehicle level, Time [5]: 392%
- Percent increase as referred to the Vehicle level, Entries [6]: 183%
- Percent increase as referred to the Vehicle level, Time [6]: 486%
- noradrenergic mediated hyperarousal in yohimbine administered rats (1 and 3 mg/kg): Conclusion: The results showed that latrepirdine dihydrochloride hydrate (at 1 and 3 mg/kg) significantly reduced noradrenergic mediated hyperarousal in yohimbine administered rats in dose-dependent manner (see table 7 and FIGS. 5 and 6).
- number of visits to and time spent into the open arms, significance (i.m., yohimbine administered rats, 0.1-3 mg/kg): effect was significant at the doses of 1 and 3 mg/kg
